For data set [1], the target named is T1, UGT1A9 (Homo sapiens, UniProt O60656).
T1 sequence (O60656 26-530): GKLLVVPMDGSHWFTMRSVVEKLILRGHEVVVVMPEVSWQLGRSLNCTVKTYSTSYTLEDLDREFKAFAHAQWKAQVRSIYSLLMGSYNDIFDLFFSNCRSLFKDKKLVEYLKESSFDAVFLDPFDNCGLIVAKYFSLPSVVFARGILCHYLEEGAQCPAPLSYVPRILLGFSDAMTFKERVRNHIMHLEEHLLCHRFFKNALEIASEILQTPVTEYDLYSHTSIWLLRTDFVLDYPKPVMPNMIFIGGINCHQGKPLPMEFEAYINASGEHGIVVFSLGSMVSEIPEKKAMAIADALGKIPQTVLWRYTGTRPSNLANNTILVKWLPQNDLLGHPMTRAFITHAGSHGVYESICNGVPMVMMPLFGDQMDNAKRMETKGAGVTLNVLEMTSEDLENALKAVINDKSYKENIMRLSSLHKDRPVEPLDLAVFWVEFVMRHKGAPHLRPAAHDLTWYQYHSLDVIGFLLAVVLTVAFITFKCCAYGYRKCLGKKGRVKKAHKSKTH
The conditions noted are these: for Log (CLint) (Actual): human, recombinant enzyme.

Data set [2] concerns the target T1, UGT1A9. The experiment in a line: Kinetic profiling of glucuronidation by expressed human UGT1A9. The conditions noted are these: log of experimental CLint (μl/mg/min).

Structures are written as SMILES. Where two headings read alike, the source gives them in different places.

Take `O=c1cc(-c2ccccc2)oc2cccc(O)c12` [compound 34, 5-Hydroxyflavone]: the “Log (CLint) (Actual)” value on UGT1A9 [1] (pH 7.4) stood at 2.09.

`CCCOC(=O)c1ccc(O)cc1` [compound 134, Propyl-4-hydroxybenzoate]: the “Log (CLint) (Actual)” value at UGT1A9 [1] (pH 7.4) is given as 1.48.

As for `O=C(/C=C/c1ccccc1)c1ccccc1O` [compound 5, 2′-Hydroxychalcone], the “Log (CLint) (Actual)” value on UGT1A9 [1] (pH 7.4) turned out to be 3.12.

As for `C=CCc1ccc(O)c(OC)c1` [compound 131, Eugenol], at UGT1A9 [1] (pH 7.4), the “Log (CLint) (Actual)” value is on record as 1.60.

Take `Cc1ccc(O)cc1` [compound 119, 4-Methylphenol]: at UGT1A9 [1] (pH 7.4), the “Log (CLint) (Actual)” value stood at 1.39.

Take `O=c1cc(-c2ccc(O)cc2)oc2cc(O)cc(O)c12` [compound 50, Apigenin]: the “Log (CLint) (Actual)” value at UGT1A9 [1] (pH 7.4) was 3.23.

`Oc1ccc(N=Nc2ccccc2)cc1` [compound 124, 4-Phenylazophenol]: at UGT1A9 [1], the “CLint (Vmax/Km)” value came to 14 µL/min/mg and the “Log (CLint) (Actual)” value stood at 1.15. For the same compound, on UGT1A9 [1] (pH 7.4), the Km stood at 82.5 µM.

Turning to `O=c1cc(-c2cccc(O)c2)oc2cc(O)c(O)cc12` [compound 36, 6,7,3′-Trihydroxflavone], on UGT1A9 [1], the “CLint (Vmax/Km)” value was 775 µL/min/mg and the “Log (CLint) (Actual)” value is on record as 2.89. Moreover, the Km on UGT1A9 [1] (pH 7.4) is 3.01 µM.

For `CN(C)CCc1c[nH]c2cccc(O)c12` [compound 143, Psilocin], the “Log (CLint) (Actual)” value on UGT1A9 [1] (pH 7.4) is listed as 0.90.

For the compound `O=c1c(O)c(-c2ccc(O)cc2)oc2ccccc12` [compound 64, 3,4′-Dihydroxyfavone], on UGT1A9 [1], the “CLint (Vmax/Km)” value was found to be 14000 µL/min/mg and the “Log (CLint) (Actual)” value was determined as 4.14. Besides, the Km at UGT1A9 [1] (pH 7.4) amounted to 0.13 µM.

With `COc1c(O)cc2oc(-c3ccccc3)cc(=O)c2c1O` [compound 57, OroxylinA], at UGT1A9 [1] (pH 7.4), the “Log (CLint) (Actual)” value stood at 2.94.

Consider `COc1ccc(-c2oc3ccc(OC)cc3c(=O)c2O)cc1` [compound 77, 3-Hydroxy-6,4′-dimethoxyflavone], for which, on UGT1A9 [2], the “Log (CLint) (Actual)” value was determined as 4.71.

Regarding `O=c1cc(-c2ccc(O)c(O)c2)oc2cc(O)cc(O)c12` [56.a, Luteolin], the “Log (CLint) (Actual)” value worked out at 3.58 on UGT1A9 [2] and 3.32 on UGT1A9 [2] (listed as 56.b).

Take `O=[N+]([O-])c1ccc(O)cc1` [compound 120, 4-Nitrophenol]: at UGT1A9 [2], the “Log (CLint) (Actual)” value is on record as 1.56.

`O=C(c1ccc(OCCN2CCCCC2)cc1)c1c(-c2ccc(O)cc2)sc2cc(O)ccc12` [compound 22, Raloxifene, reference compound]: the “Log (CLint) (Actual)” value at UGT1A9 [2] is recorded as 1.31.

In the case of `O=c1c(O)c(-c2cc(O)c(O)c(O)c2)oc2cc(O)cc(O)c12` [90.a, Myricetin], the “Log (CLint) (Actual)” value at UGT1A9 [2] is 2.90; at UGT1A9 [2] (listed as 90.b) it was 3.36; at UGT1A9 [2] (listed as 90.c), 3.69.

Take `COc1ccccc1-c1cc(=O)c2ccc(O)cc2o1` [compound 44, 7-Hydroxy-2′-methoxyflavone]: the “Log (CLint) (Actual)” value on UGT1A9 [2] came out at 3.00.

`COc1cc(O)c2c(=O)c(-c3ccc(O)cc3)coc2c1` [compound 108, Prunetin]: the “Log (CLint) (Actual)” value on UGT1A9 [2] is recorded as 2.25.

On to `COc1cc(-c2oc3cc(O)cc(O)c3c(=O)c2O)cc(OC)c1O` [94.a, Syringetin], for which the “Log (CLint) (Actual)” value on UGT1A9 [2] came to 3.87; at UGT1A9 [2] (listed as 94.b), 2.26.

In the case of `O=C1[C@H](CC[C@H](O)c2ccc(F)cc2)[C@@H](c2ccc(O)cc2)N1c1ccc(F)cc1` [compound 141, Ezetimibe, reference compound], the “Log (CLint) (Actual)” value on UGT1A9 [2] is −0.56.

Consider `O=c1cc(-c2cccc(O)c2)oc2cc(O)ccc12` [compound 43, 7,3′-Dihydroxyflavone], for which the “Log (CLint) (Actual)” value on UGT1A9 [2] was 2.74.

Turning to `Cc1ccc(C(=O)c2cc(O)c(O)c([N+](=O)[O-])c2)cc1` [compound 145, Tolcapone, reference compound], on UGT1A9 [2], the “Log (CLint) (Actual)” value is recorded as 2.62.

Turning to `CCCCOC(=O)c1ccc(O)cc1` [compound 129, Butyl-4-hydroxybenzoate], the “Log (CLint) (Actual)” value on UGT1A9 [2] is given as 1.51.

Regarding `O=c1c(O)c(-c2ccc(O)cc2)oc2ccc(O)cc12` [compound 62, 3,6,4′-Trihydroxyflavone], at UGT1A9 [2], the “Log (CLint) (Actual)” value stood at 4.34.

Take `COc1ccc(-c2oc3cc(O)ccc3c(=O)c2O)cc1OC` [69.a, 3,7-Dihydroxy-3′,4′-dimethoxyflavone]: the “Log (CLint) (Actual)” value on UGT1A9 [2] (listed as 69.b) came out at 1.00.

On to `CC(=O)CC(c1ccccc1)c1c(O)c2cccc(O)c2oc1=O` (stereo not shown) [compound 13, 8-Hydroxywarfarin], for which the “Log (CLint) (Actual)” value at UGT1A9 [2] amounted to 1.40.

With `COc1cc2c(=O)c(-c3ccc(O)cc3)coc2cc1O` [compound 106, Glycitein], the “Log (CLint) (Actual)” value at UGT1A9 [2] is reported as 2.44.

Regarding `O=C(O)/C=C/c1ccc(O)c(O)c1` [97.a, Caffeic Acid], the “Log (CLint) (Actual)” value at UGT1A9 [2] is reported as 1.04; at UGT1A9 [2] (listed as 97.b), 0.30.

As to `COc1cc(/C=C/C(=O)CC(=O)/C=C/c2ccc(O)c(OC)c2)ccc1O` [compound 15, Curcumin], the “Log (CLint) (Actual)” value at UGT1A9 [2] is 1.74.

For `CCc1ccc(O)cc1` [compound 114, 4-Ethylphenol], the “Log (CLint) (Actual)” value on UGT1A9 [2] came to 1.87.

As to `O=c1c(O)c(-c2ccccc2)oc2cc(O)ccc12` [68.a, 3,7-Dihydroxyflavone], the entries for the “Log (CLint) (Actual)” value on UGT1A9 [2] and at UGT1A9 [2] (listed as 68.b) were 4.32 and 3.13, respectively.

As to `Oc1ccc(-c2ccccc2)cc1` [compound 123, 4-Phenylphenol], the “Log (CLint) (Actual)” value at UGT1A9 [2] amounted to 1.34.

As to `Oc1ccc2c(c1)OC[C@H]1c3cc4c(cc3O[C@@H]21)OCO4` [compound 107, Maackiain], on UGT1A9 [2], the “Log (CLint) (Actual)” value amounted to 1.87.

Consider `O=C(c1ccccc1)c1ccc(O)cc1` [compound 122, 4-Hydroxybenzophenone], for which the “Log (CLint) (Actual)” value on UGT1A9 [2] was 1.83.

As to `COc1ccc(-c2cc(=O)c3ccc(O)cc3o2)cc1` [compound 47, 7-Hydroxy-4′-methoxyflavone], the “Log (CLint) (Actual)” value at UGT1A9 [2] came out at 2.36.

`CCCOc1ccc(O)cc1` [compound 125, 4-Propoxyphenol]: the “Log (CLint) (Actual)” value at UGT1A9 [2] was determined as 1.00.

Regarding `COc1ccc(-c2oc3ccccc3c(=O)c2O)cc1` [compound 74, 3-Hydroxy-4′-methoxyflavone], the “Log (CLint) (Actual)” value at UGT1A9 [2] is given as 4.51.

On to `O=C1OC[C@H](Cc2cccc(O)c2)[C@H]1Cc1cccc(O)c1` [compound 20, Enterolactone], for which the “Log (CLint) (Actual)” value at UGT1A9 [2] was 1.96.

With `O=c1c(O)c(-c2cccc(O)c2)oc2ccccc12` [compound 60, 3,3′-Dihydroxyflavone], the “Log (CLint) (Actual)” value on UGT1A9 [2] came to 4.44.

On to `O=c1cc(-c2ccc(O)cc2)oc2ccccc12` [compound 32, 4′-Hydroxyflavone], for which the “Log (CLint) (Actual)” value at UGT1A9 [2] was 1.83.

In the case of `O=c1c(O)c(-c2ccc(O)cc2O)oc2cc(O)cc(O)c12` [compound 89, Morin], the “Log (CLint) (Actual)” value on UGT1A9 [2] was determined as 1.77.

As to `Oc1ccc([C@H]2COc3cc(O)ccc3C2)cc1` [compound 103, Equol], the “Log (CLint) (Actual)” value at UGT1A9 [2] is 0.57.

In the case of `Cc1ccc2oc(-c3ccc4c(c3)OCO4)c(O)c(=O)c2c1` [compound 82, 3-Hydroxy-6-methyl-3′,4′-methylenedioxyflavone], the “Log (CLint) (Actual)” value on UGT1A9 [2] is 4.96.

On to `COc1ccccc1-c1oc2ccccc2c(=O)c1O` [compound 72, 3-Hydroxy-2′-methoxyflavone], for which the “Log (CLint) (Actual)” value at UGT1A9 [2] was determined as 4.25.

Turning to `COc1cc2oc(=O)cc(-c3ccccc3)c2cc1O` [compound 12, 6-Hydroxy-7-methoxyl-4-phenylcoumarin], the “Log (CLint) (Actual)” value on UGT1A9 [2] is 1.07.

For `CCCc1ccc(O)cc1` [compound 126, 4-n-Propylphenol], at UGT1A9 [2], the “Log (CLint) (Actual)” value was determined as 1.62.

`Cc1cc(=O)oc2cc(O)ccc12` [compound 10, 4-Methylumbelliferone]: the “Log (CLint) (Actual)” value on UGT1A9 [2] was 2.48.

Regarding `COc1cc(/C=C/C(O)=C/C(=O)/C=C/c2ccc(O)cc2)ccc1O` [compound 16, Demethoxycurcumin], the “Log (CLint) (Actual)” value on UGT1A9 [2] is 1.14.

As for `COc1ccc(/C=C\c2cc(OC)c(OC)c(OC)c2)cc1O` [compound 136, Combretastatin A4], the “Log (CLint) (Actual)” value on UGT1A9 [2] is reported as 3.33.

As for `COc1cc(/C=C/c2ccc(O)cc2)cc(OC)c1` [compound 137, Pterostilbene], the “Log (CLint) (Actual)” value at UGT1A9 [2] was determined as 0.05.

Take `COc1c(O)cc2oc(-c3ccc(O)c(O)c3)cc(=O)c2c1O` [compound 39, 6-Methoxyluteolin]: the “Log (CLint) (Actual)” value on UGT1A9 [2] is on record as 3.22.

As to `O=C(/C=C/c1ccccc1)c1ccc(O)cc1` [compound 6, 4′-Hydroxychalcone], on UGT1A9 [2], the “Log (CLint) (Actual)” value stood at 2.29.

For `O=c1cc(-c2ccccc2O)oc2ccccc12` [compound 28, 2′-Hydroxyflavone], the “Log (CLint) (Actual)” value at UGT1A9 [2] is listed as 2.27.

With `O=c1cc(-c2ccc(O)c(O)c2)oc2cc(O)ccc12` [41.a, 7,3′,4′-Trihydroxyflavone], the “Log (CLint) (Actual)” value at UGT1A9 [2] is reported as 3.08; on UGT1A9 [2] (listed as 41.b), 2.48; on UGT1A9 [2] (listed as 41.c) it was 2.11.

For the compound `COc1c(O)cc(O)c2c(=O)cc(-c3ccccc3)oc12` [compound 58, Wogonin], the “Log (CLint) (Actual)” value on UGT1A9 [2] came out at 3.60.

On to `COc1ccc2c(=O)c(O)c(-c3ccccc3)oc2c1` [compound 80, 3-Hydroxy-7-methoxyflavone], for which the “Log (CLint) (Actual)” value at UGT1A9 [2] was 4.57.

Source of the values: paper PMC3409642 (Pharmaceutical research, 2012).
